Experiments:
[1] = Radio-HPLC metabolite analysis; assay type: in vivo; details: HCT116 tumour bearing mice, i.v., 30 min post injection, plasma, liver, kidney, urine, FIG. 5
Protocol: [^18F]FTT was produced using the method described above. HCT116 tumour bearing mice were injected intravenously via the lateral tail vein with [^18F]FTT (3.7 MBq) and after 30 min post injection were sacrificed by exsanguination via cardiac puncture under isofluorane anesthesia and then tissue removed. Samples were then snap frozen using dry ice and stored until use. To plasma (0.2 ml) was added ice-cold acetonitrile (1.5 ml) and the sample centrifuged (3 min, 4° C., 15493×g). The supernatant was then decanted and evaporated to dryness using a rotary evaporator (bath temperature 40° C.). The sample was then redissolved in 10% ethanol in PBS (1.1 ml) and filtered through a 0.22 μm filter and then injected. Tumour, liver and kidney samples were homogenised in ice-cold acetonitile (1.5 ml) using an IKA Turrax homogeniser and then processed as for plasma samples. Urine samples were diluted with 10% ethanol in PBS (1.1 ml) and filtered through a 0.22 μm filter and then injected.
HPLC conditions: Agilent 1100 series HPLC system (Agilent Technologies, Stockport, UK) equipped with a γ-RAM Model 3 gamma-detector (IN/US Systems Inc., Florida, USA) and the Laura 3 software (LabLogic, Sheffield, UK). […]

HCT116 cells = assay: Acid insoluble fraction measurements (radiotracer incorporation into DNA); assay type: cell-based; details: HCT116 human colon cancer cells in culture
Protocol: Acid extraction was performed to separate radioactivity associated with small molecules, RNA, and proteins from that of DNA. HCT116 cells were cultured in triplicate in 100 mm dishes and the cells were used for DNA extraction at 24 hr. Briefly 5 ml of the assay medium containing 50 μCi of tracer was added to each dish and the dishes incubated at 37° C. for 60 min. After incubation, the medium was removed, and cells were washed twice with ice-cold phosphate-buffered saline (PBS) and 100 μl aliquots of the washings were placed in counting tubes for counting. After washing, the cells were harvested by scraping, collected into counting tubes and then centrifuged at 1200 g at 4° C. for 10 minutes. The cells were homogenized in 1 mL of ice-cold 10% perchloric acid ([…] and centrifuged. The acid-soluble fraction (supernatant) was removed and 100 μl aliquots were counted in a gamma counter. The radioactivity in the acid-insoluble precipitate (largely DNA) was counted separately.

HCT116 tumour = assay: Dynamic PET imaging of tumour bearing mice; assay type: in vivo
Protocol: All animal experiments were done by licensed investigators in accordance with the United Kingdom Home Office Guidance on the Operation of the Animal (Scientific Procedures) Act 1986 and within guidelines set out by the United Kingdom Coordinating Committee for Cancer Research's Ad hoc Committee on Welfare of Animals in Experimental Neoplasia. Both tumour-bearing (Balb/c nude mice) and non-tumour bearing (Balb/c mice) animals were used. Human colon, HCT116, tumours were grown in Balb/c nu/nu mice (Harlan) as previously reported. Tumour dimensions were measured continuously using a caliper and tumour volumes were calculated by the equation: volume=(π/6)×a×b×c, where a, b, and c represent three orthogonal axes of the tumour. Mice were used when their tumours reached approximately 100 mm^3
Dynamic [^18F]FTT imaging scans were carried out on a dedicated small animal PET scanner, Siemens Inveon PET module, Siemens Molecular Imaging Inc., Knoxville, USA). The features of this instrument have been described previously. For scanning the tail veins of vehicle- or drug-treated mice were cannulated after induction of anaesthesia (isofluorane/O2/N2O). […] The count densities were averaged for all ROIs at each of the 19 time points to obtain a time versus radioactivity curve (TAC). […]

With `Cc1cn([C@H]2C[C@H](O)[C@@H](CO)S2)c(=O)n(Cc2cn(CC[18F])nn2)c1=O` [[^18F]FTT, [^18F]N^3-((1-(2-Fluoroethyl)-1H-[1,2,3]-triazol-4-yl)methyl)-4′-thio-β-thymidine] the metabolic stability [1] was “metabolically stable in mice”, the “incorporation into tumour cells in culture” value (HCT116 cells) was “readily incorporated” and the “tissue pharmacokinetics (time versus radioactivity curves)” value (HCT116 tumour; 60 min dynamic scan, FIG. 4) was “simple tissue pharmacokinetics”. For the same compound, the “localisation on PET images” value (HCT116 tumour; i.v. via tail vein, FIG. 3) was “localisation in tumour, kidney, liver and the early part of the small intestines”.

From patent US20110236312A1, “NUCLEOSIDE ANALOGUES USEFUL AS POSITRON EMISSION TOMOGRAPHY (PET) IMAGING AGENTS” (IMPERIAL INNOVATIONS LIMITED, priority 2008, published 2011)
